According to article PMC4076210, “Discovery of Novel AKT Inhibitors with Enhanced Anti-Tumor Effects in Combination with the MEK Inhibitor” (PLoS ONE, 2014):

Test system: solid tumor cell lines
Assay: 3-day proliferation assay (CellTiter-Glo)
Format: cell-based, human
Conditions: Homo sapiens
Description: Various tumor cell lines were obtained from different sources including; the American Type Cell Culture Collection, the Developmental Therapeutics Program, the National Cancer Institute, the German Resource Center for Biological Material and the European Collection of Animal Cell Cultures. Cell lines were typically grown in […] containing 10% FBS. Some cell lines were grown in media specified by the vendor. A 3-day proliferation assay using CellTiter-Glo (CTG, Promega) was performed to measure the growth inhibition by the compounds at 0–30 µM. Cell growth was determined relative to untreated (DMSO) controls. EC50's were calculated from inhibition curves using a 4- or 6-parameter fitting algorithm in the Assay Client application.

Question: Which results are given for `Cn1ncc(Cl)c1-c1cc(C(=O)N[C@H](CN)Cc2cccc(F)c2)sc1Cl` [GSK2110183]?
Answer: IC50 (NCI-H292, NCIH292, Lung): 4.82 µM; IC50 (NCI-H322, NCIH322, Lung): 9.34 µM; IC50 (NCI-H358, NCI-H358, Lung): 1.93 µM; IC50 (NCI-H446, NCIH446, Lung): 1.14 µM; IC50 (NCI-H460, NCIH460, Lung): 3.73 µM; IC50 (NCI-H508, NCIH508, Lung): 0.309 µM; IC50 (NCI-H520, NCIH520, Lung): 0.935 µM; IC50 (NCI-H630, NCIH630, Lung): 5.95 µM; IC50 (NCI-H661, NCIH661, Lung): 5.5 µM; IC50 (NCI-H716, NCIH716, Colon): 3.85 µM; IC50 (NCI-H747, NCIH747, Lung): 2.05 µM; IC50 (NCI-H1563, NCIH1563, Lung): 0.582 µM; IC50 (NCI-H1792, NCIH1792, Lung): 4.68 µM; IC50 (NCI-H2030, NCIH2030, Lung): 5.67 µM; IC50 (NCI-H2052, NCIH2052, Lung): 4.75 µM; IC50 (NCI-H2081, NCIH2081, Lung): 0.73 µM; IC50 (NCI-H2122, NCIH2122, Lung): 2.97 µM; IC50 (NCI-H2170, NCI-H2170, Lung): 1.56 µM; IC50 (NCI-H2228, NCIH2228, Lung): 0.926 µM; IC50 (NCI-N87, NCIN87, Stomach): 1.29 µM; IC50 (NCI/ADR-RES, NCIADRRES, Breast): 12.3 µM; IC50 (OE19, OE19, Oesophagus): 5.52 µM; IC50 (OE21, OE21, Oesophagus): 0.256 µM; IC50 (OE33, OE33, Oesophagus): 8.07 µM; IC50 (OV-90, OV90, Ovary): 4.69 µM; IC50 (OVCAR-3, OVCAR3, Ovary): 5.85 µM; IC50 (OVCAR-4, OVCAR4, Ovary): 20 µM; IC50 (OVCAR-5, OVCAR5, Ovary): 7.72 µM; IC50 (PANC-1, Panc1, Pancreas): 4.42 µM; IC50 (PC3, Prostate): 3.02 µM; IC50 (PL45, PL45, Pancreas): 6.98 µM; IC50 (Panc 02.03, Panc02.03, Pancreas): 14.4 µM; IC50 (RD, Sarcoma): 11.3 µM; IC50 (RD-ES, RDES, Sarcoma): 2.41 µM; IC50 (RKO, Colon): 1.46 µM; IC50 (SAOS-2, SAOS2, Sarcoma): 5.35 µM; IC50 (SCC12, SCC12, Head & Neck): 3.85 µM; IC50 (SCC-9, SCC9, Head & Neck): 6.58 µM; IC50 (SCC-13, SCC-13, Head & Neck): 18.8 µM; IC50 (SCC-15, SCC15, Head & Neck): 4.17 µM; IC50 (SCC-25, SCC-25, Head & Neck): 4.69 µM; IC50 (SCLC3, Lung): 0.22 µM; IC50 (SF-295, SF295, Brain): 0.835 µM; IC50 (SF-539, SF539, Brain): 0.891 µM; IC50 (SH4, Skin): > 30 µM; IC50 (SHP77, SHP77, Lung): 5.22 µM; IC50 (SJRH30, SJRH30, Sarcoma): 0.919 µM; IC50 (SK-BR-3, SKBR3, Breast): 0.371 µM; IC50 (SK-LMS-1, SKLMS1, Sarcoma): 7.98 µM; IC50 (SK-MEL-1, SKMEL1, Skin): 2.14 µM; IC50 (SK-MEL-28, SKMEL28, Skin): 3.23 µM; IC50 (SK-MES-1, SKMES-1, Lung): 4.55 µM; IC50 (SK-N-AS, SKNAS, Neuroblastoma): 7.09 µM; IC50 (SK-OV-3, SKOV3, Ovary): 1.1 µM; IC50 (SK-UT-1, SKUT1, Sarcoma): 0.504 µM; IC50 (SKNF1, Neuroblastoma): 0.886 µM; IC50 (SN12C, Kidney): > 30 µM; IC50 (SNB-75, SNB75, Brain): 1.47 µM; IC50 (SNU1, SNU1, Stomach): 2.15 µM; IC50 (SNU-5, SNU5, Stomach): 11.8 µM; IC50 (SNU-16, SNU16, Stomach): 6.58 µM; IC50 (SNU-398, SNU398, Liver): 27.3 µM; IC50 (SNU-449, SNU449, Liver): 6.66 µM; IC50 (SW48, SW48, Colon): 0.807 µM; IC50 (SW480, SW480, Colon): > 30 µM; IC50 (SW579, SW579, Thyroid): 1.82 µM; IC50 (SW684, SW684, Sarcoma): 1.04 µM; IC50 (SW756, SW756, Cervix): 10.4 µM; IC50 (SW780, SW780, Bladder): 8.44 µM; IC50 (SW872, SW872, Sarcoma): 0.919 µM; IC50 (SW900, SW900, Lung): 15.6 µM; IC50 (SW1088, SW1088, Brain): 0.952 µM; IC50 (SW1417, SW1417, Colon): 3.96 µM; IC50 (SW1783, SW1783, Brain): 0.592 µM; IC50 (SW1990, SW1990, Pancreas): 13.3 µM; IC50 (Skut1B, Sarcoma): 0.021 µM; IC50 (T47D, T-47D, Breast): 0.331 µM; IC50 (T84, Colon): 8.49 µM; IC50 (TE 381.T, TE381T, Sarcoma): 1.63 µM; IC50 (TK-10, TK10, Kidney): 4.8 µM; IC50 (U20S, Sarcoma): > 30 µM; IC50 (U138-MG, U138MG, Brain): 2.81 µM; IC50 (U-87 MG, U87MG, Brain): 4.97 µM; IC50 (U-251, U251, Brain): 2.43 µM; IC50 (UACC-62, UACC62, Skin): 2.09 µM; IC50 (UACC-257, UACC257, Skin): 5.26 µM; IC50 (UMUC3, UMUC3, Bladder): 10 µM; IC50 (YAPC, Pancreas): 8.3 µM; IC50 (ZR-75-1, ZR75-1, Breast): 0.088 µM
